Source: ChEMBL document CHEMBL1129817, “Novel water-soluble analogues retaining potent antitumor activity of RA-VII, a cyclic hexapeptide from Rubia plants” (Bioorg Med Chem Lett, 1997)
≈ marks a conversion by molar mass, not a printed value. Where “and” joins values, the source holds several entries; their conditions need not be identical. Equal values may be shown once.

Columns and labels:
[1] = test system: B16; test: Compound was evaluated for percent tumor volume against B16 melanoma in mice (T) at 3.13 mg/kg intravenous administration after 11 days ot that of control (C); format: functional, Mus musculus
[2] = test system: B16; test: Compound was evaluated for percent tumor volume against B16 melanoma in mice (T) at 3.13 mg/kg intravenous administration after 13 days ot that of control (C); format: functional, Mus musculus
[3] = test system: B16; test: Compound was evaluated for percent tumor volume against B16 melanoma in mice (T) at 3.13 mg/kg intravenous administration after 8 days ot that of control (C); format: functional, Mus musculus
[4] = test system: B16; test: Compound was evaluated for percent tumor volume against B16 melanoma in mice (T) at 6.25 mg/kg intravenous administration after 11 days ot that of control (C); format: functional, Mus musculus
[5] = test system: B16; test: Compound was evaluated for percent tumor volume against B16 melanoma in mice (T) at 6.25 mg/kg intravenous administration after 8 days ot that of control (C); format: functional, Mus musculus
[6] = test system: Colon 26; test: Compound was evaluated for percent tumor volume against colon 26 cells in mice (T) at a dose of 1.6 mg/kg intravenous administration after 10 days ot that of control (C); format: functional, Mus musculus
[7] = test system: Colon 26; test: Compound was evaluated for percent tumor volume against colon 26 cells in mice (T) at a dose of 1.6 mg/kg intravenous administration after 12 days ot that of control (C); format: functional, Mus musculus
[8] = test system: Colon 26; test: Compound was evaluated for percent tumor volume against colon 26 cells in mice (T) at a dose of 1.6 mg/kg intravenous administration after 8 days ot that of control (C); format: functional, Mus musculus
[9] = test system: Colon 26; test: Compound was evaluated for percent tumor volume against colon 26 cells in mice (T) at a dose of 6.25 mg/kg intravenous administration after 12 days ot that of control (C), (Number of mice surviving / number of mice tested); T/C, 7/8; format: functional, Mus musculus
[10] = test system: Colon 26; test: Compound was evaluated for percent tumor volume against colon 26 cells in mice (T) at a dose of 6.25 mg/kg intravenous administration after 8 days ot that of control (C); format: functional, Mus musculus
[11] = test system: Colon 26; test: Compound was evaluated for percent tumor volume against colon 26 cells in mice (T) at a dose of 3.13 mg/kg intravenous administration after 10 days ot that of control (C), (Number of mice surviving / number of mice tested; T/C), 7/8; format: functional, Mus musculus
[12] = test system: Colon 26; test: Compound was evaluated for percent tumor volume against colon 26 cells in mice (T) at a dose of 3.13 mg/kg intravenous administration after 12 days ot that of control (C), (Number of mice surviving / number of mice tested); T/C, 6/8; format: functional, Mus musculus
[13] = test system: Colon 26; test: Compound was evaluated for percent tumor volume against colon 26 cells in mice (T) at a dose of 3.13 mg/kg intravenous administration after 8 days ot that of control (C); format: functional, Mus musculus
[14] = test system: Colon 26; test: Compound was evaluated for percent tumor volume against colon 26 cells in mice (T) at a dose of 6.25 mg/kg intravenous administration after 10 days ot that of control (C); format: functional, Mus musculus
[15] = test system: P388; test: Percentage of the median survival time of P388 leukemic mice (T) at intraperitoneal administration of 0.4 mg/kg dose to that of controls (C); format: functional, Mus musculus
[16] = test system: P388; test: Percentage of the median survival time of P388 leukemic mice (T) at intraperitoneal administration of 1.6 mg/kg dose to that of controls (C); format: functional, Mus musculus
[17] = test system: P388; test: Percentage of the median survival time of P388 leukemic mice (T) at intraperitoneal administration of 6.25 mg/kg dose to that of controls (C); format: functional, Mus musculus
[18] = test system: KATO III stomach cancer cell line; test: Compound was evaluated for cytotoxicity against KATO-III gastric carcinoma cells; format: functional, cell-based; conditions: Homo sapiens
[19] = test system: L1210; test: Compound was evaluated for cytotoxicity against L1210 leukemia cells; format: functional, cell-based; conditions: Mus musculus
[20] = test system: KB; test: Compound was evaluated for cytotoxicity against human epidermoid carcinoma of nasopharynx (KB) cells; format: functional, cell-based
[21] = test system: P388; test: Percentage of the median survival time of P388 leukemic mice (T) at intraperitoneal administration of 6.25 mg/kg dose to that of controls (C); Toxic; format: functional, organism-based; design: dose 6.25 mg/kg; conditions: Mus musculus
[22] = test system: B16; test: Compound was evaluated for percent tumor volume against B16 melanoma in mice (T) at 1.6 mg/kg intravenous administration after 11 days ot that of control (C); format: functional, Mus musculus
[23] = test system: B16; test: Compound was evaluated for percent tumor volume against B16 melanoma in mice (T) at 1.6 mg/kg intravenous administration after 13 days ot that of control (C); format: functional, Mus musculus
[24] = test system: B16; test: Compound was evaluated for percent tumor volume against B16 melanoma in mice (T) at 1.6 mg/kg intravenous administration after 8 days ot that of control (C); format: functional, Mus musculus
[25] = test system: Colon 26; test: Compound was evaluated for percent tumor volume against colon 26 cells in mice (T) at a dose of 0.8 mg/kg intravenous administration after 10 days ot that of control (C); format: functional, Mus musculus
[26] = test system: Colon 26; test: Compound was evaluated for percent tumor volume against colon 26 cells in mice (T) at a dose of 0.8 mg/kg intravenous administration after 12 days ot that of control (C); format: functional, Mus musculus
[27] = test system: Colon 26; test: Compound was evaluated for percent tumor volume against colon 26 cells in mice (T) at a dose of 0.8 mg/kg intravenous administration after 8 days ot that of control (C); format: functional, Mus musculus
[28] = test system: Colon 26; test: Compound was evaluated for percent tumor volume against colon 26 cells in mice (T) at a dose of 3.13 mg/kg intravenous administration after 10 days ot that of control (C); format: functional, Mus musculus
[29] = test system: Colon 26; test: Compound was evaluated for percent tumor volume against colon 26 cells in mice (T) at a dose of 3.13 mg/kg intravenous administration after 12 days ot that of control (C); format: functional, Mus musculus

Structure (SMILES): COc1ccc(C[C@H]2C(=O)N[C@@H](C)C(=O)N(C)[C@H]3Cc4cccc(c4)Oc4cc(ccc4OCCN(C)C)C[C@@H](C(=O)N[C@H](C)C(=O)N[C@@H](C)C(=O)N2C)N(C)C3=O)cc1
- T/C [1]: 67.9%
- T/C [2]: 140.5%
- T/C [3]: 77.2%
- T/C [4]: 40.8%
- T/C [5]: 57% and 40.8%
- T/C [6]: 76.7%
- T/C [7]: 102.5%
- T/C [8]: 84.1%
- T/C [9]: 125.5%
- T/C [10]: 48.1%
- T/C [11]: 55.8%
- T/C [12]: 101.5%
- T/C [13]: 54.4%
- T/C [14]: 70%
- T/C [15]: 127%
- T/C [16]: 145%
- T/C [17]: 153%

Structure (SMILES): CCN(CCOc1ccc2cc1Oc1cccc(c1)C[C@H]1C(=O)N(C)[C@@H](C2)C(=O)N[C@H](C)C(=O)N[C@@H](C)C(=O)N(C)[C@@H](Cc2ccc(OC)cc2)C(=O)N[C@@H](C)C(=O)N1C)c1ccccc1
- T/C [15]: 116%
- T/C [16]: 133%
- T/C [17]: 150%

Structure (SMILES): COc1ccc(C[C@H]2C(=O)N[C@@H](C)C(=O)N(C)[C@H]3Cc4cccc(c4)Oc4cc(ccc4OC)C[C@@H](C(=O)N[C@H](C)C(=O)N[C@@H](C)C(=O)N2C)N(C)C3=O)cc1
- IC50 [18]: 2.9 ng/mL (≈ 3.76 nM)
- IC50 [19]: 1.2 ng/mL (≈ 1.56 nM)
- IC50 [20]: 2.3 ng/mL (≈ 2.98 nM)

Structure (SMILES): COc1ccc(C[C@H]2C(=O)N[C@@H](C)C(=O)N(C)[C@H]3Cc4cccc(c4)Oc4cc(ccc4OCCN(Cc4ccccc4)Cc4ccccc4)C[C@@H](C(=O)N[C@H](C)C(=O)N[C@@H](C)C(=O)N2C)N(C)C3=O)cc1
- IC50 [20]: 59 ng/mL (≈ 60.2 nM)

Structure (SMILES): CCN(CC)CCOc1ccc2cc1Oc1cccc(c1)C[C@H]1C(=O)N(C)[C@@H](C2)C(=O)N[C@H](C)C(=O)N[C@@H](C)C(=O)N(C)[C@@H](Cc2ccc(OC)cc2)C(=O)N[C@@H](C)C(=O)N1C
- IC50 [20]: 10 ng/mL (≈ 11.7 nM)

Structure (SMILES): COc1ccc(C[C@H]2C(=O)N[C@@H](C)C(=O)N(C)[C@H]3Cc4cccc(c4)Oc4cc(ccc4OCCN(C(C)C)C(C)C)C[C@@H](C(=O)N[C@H](C)C(=O)N[C@@H](C)C(=O)N2C)N(C)C3=O)cc1 [listing 1 of 2 here]
- IC50 [18]: 1.5 ng/mL (≈ 1.7 nM)
- IC50 [19]: 4.5 ng/mL (≈ 5.09 nM)
- IC50 [20]: 4.6 ng/mL (≈ 5.2 nM)

Structure (SMILES): COc1ccc(C[C@H]2C(=O)N[C@H](C)C(=O)N(C)[C@H]3Cc4cccc(c4)Oc4cc(ccc4OC)C[C@@H](C(=O)N[C@H](C)C(=O)N[C@@H](C)C(=O)N2C)N(C)C3=O)cc1
- T/C [21]: Toxic

Structure (SMILES): COc1ccc(C[C@H]2C(=O)N[C@@H](C)C(=O)N(C)[C@H]3Cc4cccc(c4)Oc4cc(ccc4OCCN4CCCC4)C[C@@H](C(=O)N[C@H](C)C(=O)N[C@@H](C)C(=O)N2C)N(C)C3=O)cc1
- T/C [15]: 112%
- T/C [16]: 124%
- T/C [17]: 134%

Structure (SMILES): COc1ccc(C[C@H]2C(=O)N[C@@H](C)C(=O)N(C)[C@H]3Cc4cccc(c4)Oc4cc(ccc4OCCN(C(C)C)C(C)C)C[C@@H](C(=O)N[C@H](C)C(=O)N[C@@H](C)C(=O)N2C)N(C)C3=O)cc1 [listing 2 of 2 here]
- T/C [22]: 43.3%
- T/C [23]: 69.7%
- T/C [24]: 55.9%
- T/C [1]: 32.1%
- T/C ([3]; 3.13 mg/kg): 57.5% and 32.1%
- T/C [25]: 83.4%
- T/C [26]: 136.3%
- T/C [6]: 57.1%
- T/C [7]: 143.1%
- T/C [8]: 41.5%
- T/C [27]: 42.1%
- T/C [28]: 38.5%
- T/C [29]: 99.6%
- T/C [13]: 34.5%
- T/C [15]: 151%
- T/C [16]: 157%
- T/C [17]: 170%
